According to PubChem BioAssay (NCI):
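Test compounds were applied to cells in 96-well plates for 48 hours at 5 doses. GI50: concentration for 50% inhibition of growth. TGI marks complete inhibition of growth.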

Assays:
Assay in all cases: NCI tumour cell line growth inhibition, 48 h
[1] = test system: RPMI-8226 leukemia
[2] = test system: HCC-2998 colon
[3] = test system: COLO 205 colon
[4] = test system: SF-268 CNS
[5] = test system: OVCAR-4 ovarian
[6] = test system: HL-60(TB) leukemia
[7] = test system: UACC-62 melanoma
[8] = test system: A549 NSCLC
[9] = test system: A498 renal
[10] = test system: TK-10 renal

SMILES | TGI [1] | TGI [2] | TGI [3] | TGI [4] | TGI [5] | TGI [6] | TGI [7] | TGI [8] | TGI [9] | TGI [10] | GI50 [1] | GI50 [2] | GI50 [3] | GI50 [4] | GI50 [5] | GI50 [6] | GI50 [7] | GI50 [8] | GI50 [9] | GI50 [10]
O=NN(Cc1ccc(Cl)cc1)C(C(=O)O)c1ccccc1 (configuration not stated) | > 100 µM | > 100 µM | > 100 µM | > 100 µM | > 100 µM | > 100 µM | > 100 µM | > 100 µM | > 100 µM | > 100 µM |  |  |  |  |  |  |  |  |  | 
CCOC(=O)CCc1cc(=O)oc2cc(O)cc(O)c12 | > 100 µM | > 100 µM | > 100 µM | > 100 µM | > 100 µM | > 100 µM | > 100 µM | > 100 µM | > 100 µM | > 100 µM |  |  |  |  |  |  |  |  |  | 
C[C@]12CC[C@H](O)CC1=CC[C@@H]1[C@@H]2CC[C@]2(C)C(c3cccnc3)=CC[C@@H]12 | > 100 µM | > 100 µM | > 100 µM | > 100 µM | > 100 µM | > 100 µM | > 100 µM | > 100 µM | > 100 µM | > 100 µM | 5.1 µM | > 100 µM | > 100 µM | 15.7 µM | 95.2 µM | > 100 µM | 37.4 µM | > 100 µM | > 27.8 µM | > 100 µM
Clc1ccc(C2N3CCCCC3[C@@H]3c4[nH]c5ccccc5c4CCN23)cc1 (some centres not stated) | > 100 µM | > 100 µM |  | > 100 µM | > 100 µM | 55 µM | > 100 µM | > 100 µM | > 100 µM | > 100 µM |  |  |  |  |  |  |  |  |  | 
NCC(=O)NS(=O)(=O)OC[C@H]1O[C@@H](n2cnc3c(N)ncnc32)[C@H](O)[C@@H]1O | 10.1 µM | 4.34 µM | 6.14 µM | 5.65 µM | 2.45 µM | 6.95 µM | 3.78 µM | 5.27 µM | 3.21 µM | 5.78 µM | 3.29 µM | 2.04 µM | 2.27 µM | 0.503 µM | 0.388 µM | 2.78 µM | 1.85 µM | 2.32 µM | 1.6 µM | 2.75 µM
CCCCC/C(C=C(C#N)C#N)=C/c1ccccc1 | 5.78 µM | 9.77 µM | 16.3 µM | 9.51 µM | > 55.8 µM | 6.32 µM | 11.9 µM | > 43.6 µM | 23.2 µM | 42.9 µM | 1.92 µM | 4.69 µM | 4.91 µM | 2.45 µM | 7.74 µM | 2.39 µM | 2.84 µM | 8.95 µM | 9.72 µM | 6.54 µM
N#Cc1ccc(C#Cc2ccccc2C#CCCCCO)cc1 | 44.1 µM | 33.1 µM | 34.3 µM | 40.7 µM | 65.9 µM | 45.6 µM | 28.4 µM | 27.9 µM | 27.7 µM | 33.5 µM | 20.6 µM | 18.5 µM | 18.1 µM | 18.9 µM | 26.2 µM | 23.7 µM | 15 µM | 14.4 µM | 13.8 µM | 16.5 µM
Cc1c(C(=O)N/N=C/c2ccc(Cl)cc2)nnn1-c1ccnc2c(C(F)(F)F)cccc12 | 31.1 µM | 53.1 µM | 3.58 µM | 28.2 µM | 6.08 µM | 48 µM | 28.4 µM | 4.63 µM | 45.1 µM | 8.93 µM | 4.2 µM | 9.54 µM | 1.55 µM | 11.7 µM | 2.9 µM | 6.39 µM | 10.6 µM | 2.1 µM | 15.9 µM | 2.6 µM
CCCCN(CCCC)C(=O)C(=O)C(C#N)c1ccc(C)cc1 (configuration not stated) | > 100 µM | > 100 µM |  | > 100 µM | > 100 µM | > 100 µM | > 100 µM | > 100 µM | > 100 µM | > 100 µM |  |  |  |  |  |  |  |  |  | 
CN(C)CCC(=O)N1C/C(=C/c2ccccc2)C(=O)/C(=C\c2ccccc2)C1 | 0.717 µM | 2.45 µM | 5.77 µM | 9.22 µM | 7.98 µM | 1.81 µM | 3.77 µM | 13.5 µM | 6.75 µM | 17.9 µM |  |  |  |  |  |  |  |  |  | 
CC12CC[C@@H](C(C)(C)O)C1[C@@H](O)CC1(C)C2CCC2[C@@]3(C)CC[C@H](O)C(C)(C)C3C(O)C[C@]21C (some centres not stated) | > 100 µM | 36.2 µM | 66.7 µM | 39.7 µM | 32.6 µM | 24.9 µM | 34.7 µM | 29.7 µM | 32.3 µM | 35.6 µM |  |  |  |  |  |  |  |  |  | 
CCOC(=O)NC(=O)c1cn(C2OC(COC(=O)CCCCCCCCC(=O)OCC3OC(n4cc(C(=O)NC(=O)OCC)c(=O)[nH]c4=O)C(O)C3O)C(O)C2O)c(=O)[nH]c1=O (configuration not stated) | > 100 µM | > 100 µM |  | > 100 µM | > 100 µM | > 100 µM | > 100 µM | > 100 µM | > 100 µM | > 100 µM |  |  |  |  |  |  |  |  |  | 
CN(C(=O)C12C3C4C1C1C2C3C41C(=O)C(C)(C)C)C(C)(C)C (configuration not stated) | > 100 µM | > 100 µM | > 100 µM | > 100 µM | > 100 µM | > 100 µM | > 100 µM | > 100 µM | > 100 µM | > 100 µM |  |  |  |  |  |  |  |  |  | 
CC1CCC2(C(=O)O)CCC3(C)C(=CCC4C5(C)CC(O)C(O)C(C)(CO)C5C(O)CC43C)C2C1C (configuration not stated) | 80.4 µM | > 100 µM | > 100 µM | > 87.2 µM | > 100 µM | 47.1 µM | 47.5 µM | > 100 µM | 48 µM | > 100 µM |  |  |  |  |  |  |  |  |  | 
CCCCC(=O)OCC1OC(n2cnc3c(=S)nc[nH]c32)C(OC(=O)CCCC)C1OC(=O)CCCC (configuration not stated) | > 100 µM | > 36.7 µM | 5.18 µM | > 100 µM | > 100 µM | > 100 µM | > 100 µM | > 100 µM | > 96.1 µM | > 100 µM | 5.81 µM | 0.565 µM | 1.37 µM | 3.96 µM | 0.441 µM | 3.55 µM | 0.899 µM | > 25.3 µM | 9.54 µM | 0.608 µM
O=C(CN1CCOCC1)Nc1ccc(Cn2nnc3c2C(=O)c2nnn(Cc4ccc(NC(=O)CN5CCOCC5)cc4)c2C3=O)cc1 | 2.24 µM | 1.34 µM | 0.463 µM | 1.94 µM | 1.52 µM | 0.61 µM | 1.83 µM | 4.97 µM | 4.39 µM | 24.4 µM | 0.365 µM | 0.348 µM | 0.199 µM | 0.334 µM | 0.303 µM | 0.204 µM | 0.463 µM | 1.99 µM | 1.97 µM | 3.25 µM
